Experimental data: PMC6540285, “Evaluation of Protein Kinase Inhibitors with PLK4 Cross-Over Potential in a Pre-Clinical Model of Cancer” (International Journal of Molecular Sciences, 2019)

What was measured:
[1] = biological target: RET V804L (Homo sapiens, UniProt P07949, V804L); experiment: SelectScreen kinase profiling, ZLYTE; assay type: biochemical
[2] = biological target: RET M918T (Homo sapiens, UniProt P07949, M918T); experiment: SelectScreen kinase profiling, LanthaScreen binding
[3] = biological target: MAP3K5 (ASK1) (Homo sapiens, UniProt Q99683); experiment: as above
[4] = biological target: CSNK2A2 (CK2 alpha 2) (Homo sapiens, UniProt P19784); experiment: SelectScreen kinase profiling, ZLYTE; assay type: biochemical
Chain of CSNK2A2 (CK2 alpha 2) (P19784 whole entry): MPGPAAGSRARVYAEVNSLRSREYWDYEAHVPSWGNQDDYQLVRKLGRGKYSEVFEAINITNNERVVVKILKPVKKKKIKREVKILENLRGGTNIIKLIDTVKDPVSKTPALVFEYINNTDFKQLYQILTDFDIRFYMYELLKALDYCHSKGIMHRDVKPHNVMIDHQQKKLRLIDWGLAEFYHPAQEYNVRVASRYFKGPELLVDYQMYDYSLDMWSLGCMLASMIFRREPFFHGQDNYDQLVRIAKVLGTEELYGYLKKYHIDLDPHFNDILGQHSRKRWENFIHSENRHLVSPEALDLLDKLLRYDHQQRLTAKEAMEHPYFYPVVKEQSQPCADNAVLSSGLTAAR

[5] = biological target: KIT D816H (Homo sapiens, UniProt P10721, D816H); experiment: SelectScreen kinase profiling, LanthaScreen binding
[6] = biological target: MAPK14 (p38 alpha) (Homo sapiens, UniProt Q16539); experiment: SelectScreen kinase profiling, ZLYTE; assay type: biochemical
[7] = biological target: CDK5/p25 (Homo sapiens, UniProt Q00535); experiment: SelectScreen kinase profiling, ZLYTE; assay type: biochemical; conditions: CDK5/p25, 10 µM
[8] = biological target: P450 2J2 (Homo sapiens, UniProt P51589)
[9] = biological target: MUSK (Homo sapiens, UniProt O15146); experiment: SelectScreen kinase profiling, ZLYTE; assay type: biochemical
[10] = biological target: AMPK (A1/B2/G2) (Homo sapiens, UniProt Q13131); experiment: SelectScreen kinase profiling, ZLYTE; assay type: biochemical
[11] = biological target: RIPK3 (Homo sapiens, UniProt Q9Y572); experiment: SelectScreen kinase profiling, LanthaScreen binding; conditions: RIPK3, 10 µM
Chain of RIPK3 (Q9Y572 whole entry): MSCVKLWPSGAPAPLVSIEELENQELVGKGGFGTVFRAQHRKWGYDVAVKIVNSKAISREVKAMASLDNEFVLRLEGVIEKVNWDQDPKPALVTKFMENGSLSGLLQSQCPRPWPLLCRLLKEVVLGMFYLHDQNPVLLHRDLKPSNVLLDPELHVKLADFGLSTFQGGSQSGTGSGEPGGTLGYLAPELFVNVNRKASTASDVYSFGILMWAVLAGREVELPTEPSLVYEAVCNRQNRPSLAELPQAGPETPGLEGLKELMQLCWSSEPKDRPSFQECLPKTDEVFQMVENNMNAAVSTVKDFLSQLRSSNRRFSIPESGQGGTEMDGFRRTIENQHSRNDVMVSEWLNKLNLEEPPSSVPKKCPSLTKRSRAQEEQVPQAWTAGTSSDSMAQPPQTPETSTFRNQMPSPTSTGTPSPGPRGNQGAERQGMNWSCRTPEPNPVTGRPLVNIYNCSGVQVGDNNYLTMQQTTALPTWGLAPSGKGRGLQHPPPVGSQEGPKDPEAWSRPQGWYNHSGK

[12] = biological target: LRRK2 I2020T (Homo sapiens, UniProt Q5S007, I2020T); experiment: SelectScreen kinase profiling, Adapta; assay type: biochemical
[13] = biological target: MAPK10 (JNK3) (Homo sapiens, UniProt P53779); experiment: SelectScreen kinase profiling, ZLYTE; assay type: biochemical
[14] = biological target: MAP4K4 (HGK) (Homo sapiens, UniProt O95819); experiment: SelectScreen kinase profiling, ZLYTE; assay type: biochemical
[15] = biological target: PRKCZ (PKC zeta) (Homo sapiens, UniProt Q05513); experiment: SelectScreen kinase profiling, ZLYTE; assay type: biochemical
[16] = biological target: PRKG1 (Homo sapiens, UniProt Q13976); experiment: SelectScreen kinase profiling, ZLYTE; assay type: biochemical; conditions: PRKG1, 10 µM
Chain of PRKG1 (Q13976 whole entry): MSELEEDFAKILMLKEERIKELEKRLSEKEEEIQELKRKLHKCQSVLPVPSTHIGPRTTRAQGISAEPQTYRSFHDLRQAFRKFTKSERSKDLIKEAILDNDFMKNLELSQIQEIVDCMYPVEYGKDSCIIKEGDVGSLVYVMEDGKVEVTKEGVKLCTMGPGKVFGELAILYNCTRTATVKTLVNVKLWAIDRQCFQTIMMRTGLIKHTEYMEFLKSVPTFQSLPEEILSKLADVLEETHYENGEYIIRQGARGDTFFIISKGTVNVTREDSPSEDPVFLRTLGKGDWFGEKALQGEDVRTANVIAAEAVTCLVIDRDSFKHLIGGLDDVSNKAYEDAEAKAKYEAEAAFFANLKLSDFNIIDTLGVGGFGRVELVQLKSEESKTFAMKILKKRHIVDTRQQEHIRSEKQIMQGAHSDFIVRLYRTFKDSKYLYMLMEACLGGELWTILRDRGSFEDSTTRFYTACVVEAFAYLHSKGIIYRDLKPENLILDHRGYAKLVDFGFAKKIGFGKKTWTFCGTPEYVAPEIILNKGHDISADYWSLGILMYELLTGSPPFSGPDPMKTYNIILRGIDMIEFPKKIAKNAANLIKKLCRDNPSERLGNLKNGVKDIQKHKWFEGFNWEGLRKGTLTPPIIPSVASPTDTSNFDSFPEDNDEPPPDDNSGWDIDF

[17] = biological target: CLK4 (Homo sapiens, UniProt Q9HAZ1); experiment: SelectScreen kinase profiling, LanthaScreen binding; conditions: CLK4, 10 µM
[18] = biological target: NTRK2 (TRKB) (Homo sapiens, UniProt Q16620); experiment: SelectScreen kinase profiling, ZLYTE; assay type: biochemical
[19] = biological target: MAP4K5 (KHS1) (Homo sapiens, UniProt Q9Y4K4); experiment: SelectScreen kinase profiling, ZLYTE; assay type: biochemical
[20] = biological target: EPHB3 (Homo sapiens, UniProt P54753); experiment: SelectScreen kinase profiling, ZLYTE; assay type: biochemical; conditions: EPHB3, 10 µM
Chain of EPHB3 (P54753 34-998): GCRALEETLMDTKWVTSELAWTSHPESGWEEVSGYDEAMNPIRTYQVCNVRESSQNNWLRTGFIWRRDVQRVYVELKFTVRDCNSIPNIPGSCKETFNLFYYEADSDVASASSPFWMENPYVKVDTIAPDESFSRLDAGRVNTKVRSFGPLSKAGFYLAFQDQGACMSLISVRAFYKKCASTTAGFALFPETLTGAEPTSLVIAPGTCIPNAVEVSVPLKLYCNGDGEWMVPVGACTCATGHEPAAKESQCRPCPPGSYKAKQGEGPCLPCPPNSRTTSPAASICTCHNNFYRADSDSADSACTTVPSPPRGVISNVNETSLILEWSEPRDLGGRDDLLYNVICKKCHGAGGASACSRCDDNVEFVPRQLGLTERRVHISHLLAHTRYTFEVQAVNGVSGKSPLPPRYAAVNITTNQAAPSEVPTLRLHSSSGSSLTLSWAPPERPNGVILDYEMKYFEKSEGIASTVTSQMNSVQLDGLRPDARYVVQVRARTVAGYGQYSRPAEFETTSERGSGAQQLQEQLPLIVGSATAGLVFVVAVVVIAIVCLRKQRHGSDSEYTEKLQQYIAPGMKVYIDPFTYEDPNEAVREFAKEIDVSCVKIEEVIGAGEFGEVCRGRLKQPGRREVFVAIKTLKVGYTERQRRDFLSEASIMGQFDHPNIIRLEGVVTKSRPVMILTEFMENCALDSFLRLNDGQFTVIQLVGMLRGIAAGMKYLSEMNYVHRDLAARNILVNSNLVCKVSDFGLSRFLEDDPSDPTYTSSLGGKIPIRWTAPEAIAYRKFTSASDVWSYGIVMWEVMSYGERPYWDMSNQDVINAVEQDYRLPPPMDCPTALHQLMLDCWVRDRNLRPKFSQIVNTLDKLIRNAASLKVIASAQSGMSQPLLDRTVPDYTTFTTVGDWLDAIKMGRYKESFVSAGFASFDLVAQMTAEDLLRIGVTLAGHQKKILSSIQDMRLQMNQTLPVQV

[21] = biological target: GRK1 (Homo sapiens, UniProt Q15835); experiment: SelectScreen kinase profiling, LanthaScreen binding; conditions: GRK1, 10 µM
[22] = biological target: P450 1A2 (Homo sapiens, UniProt P05177); experiment: SelectScreen P450 Vivid biochemical assay; conditions: 10000nM; substrate EOMCC
Chain of P450 1A2 (P05177 whole entry): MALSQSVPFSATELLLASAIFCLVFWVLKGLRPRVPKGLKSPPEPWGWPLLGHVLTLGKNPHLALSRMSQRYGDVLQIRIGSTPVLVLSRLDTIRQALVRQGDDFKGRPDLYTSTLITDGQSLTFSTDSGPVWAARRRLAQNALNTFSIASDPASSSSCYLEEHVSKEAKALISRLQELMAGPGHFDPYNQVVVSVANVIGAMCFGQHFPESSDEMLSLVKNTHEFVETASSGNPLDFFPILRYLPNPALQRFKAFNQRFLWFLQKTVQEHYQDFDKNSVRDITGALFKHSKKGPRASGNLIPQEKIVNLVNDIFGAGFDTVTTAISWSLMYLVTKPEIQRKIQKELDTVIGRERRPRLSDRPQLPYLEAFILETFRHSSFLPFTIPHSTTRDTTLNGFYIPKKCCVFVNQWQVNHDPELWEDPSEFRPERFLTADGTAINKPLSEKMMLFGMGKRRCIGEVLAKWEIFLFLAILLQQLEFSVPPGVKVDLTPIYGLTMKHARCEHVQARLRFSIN

[23] = biological target: MAP2K6 (MKK6) (Homo sapiens, UniProt P52564); experiment: SelectScreen kinase profiling, ZLYTE; assay type: biochemical
[24] = biological target: MLK4 (Homo sapiens, UniProt Q5TCX8); experiment: SelectScreen kinase profiling, LanthaScreen binding; conditions: MLK4, 10 µM
[25] = biological target: BRSK1 (SAD1) (Homo sapiens, UniProt Q8TDC3); experiment: SelectScreen kinase profiling, ZLYTE; assay type: biochemical
[26] = biological target: BMPR2 (Homo sapiens, UniProt Q13873); experiment: SelectScreen kinase profiling, LanthaScreen binding; conditions: BMPR2, 10 µM
[27] = system: RT and MB cells; experiment: Cell cycle analysis (PI flow cytometry); assay type: cell-based; conditions: 2µM
Experimental: Cell cycle analysis was performed by flow cytometry of cells stained with Propidium Iodide (PI) (Thermo Fisher Scientific, Carlsbad, CA, USA) according to manufacturer’s instructions. Cells treated with the top PLK4i candidates and 0.1% DMSO (control) were fixed in 80% ethanol overnight, stained with PI, and then subjected to flow cytometric analysis using a BD Fortessa instrument (BD Biosciences, San Jose, CA, USA). Data was analyzed using Modfit LT from Verity Software House (Topsham, ME, USA). All experiments were performed in triplicate.

[28] = biological target: LCK (Homo sapiens, UniProt P06239); experiment: SelectScreen kinase profiling, ZLYTE; assay type: biochemical
[29] = biological target: CHUK (IKK alpha) (Homo sapiens, UniProt O15111); experiment: SelectScreen kinase profiling, Adapta; assay type: biochemical
[30] = biological target: RPS6KA2 (RSK3) (Homo sapiens, UniProt Q15349); experiment: SelectScreen kinase profiling, ZLYTE; assay type: biochemical
[31] = biological target: NEK8 (Homo sapiens, UniProt Q86SG6); experiment: SelectScreen kinase profiling, LanthaScreen binding; conditions: NEK8, 10 µM
Chain of NEK8 (Q86SG6 whole entry): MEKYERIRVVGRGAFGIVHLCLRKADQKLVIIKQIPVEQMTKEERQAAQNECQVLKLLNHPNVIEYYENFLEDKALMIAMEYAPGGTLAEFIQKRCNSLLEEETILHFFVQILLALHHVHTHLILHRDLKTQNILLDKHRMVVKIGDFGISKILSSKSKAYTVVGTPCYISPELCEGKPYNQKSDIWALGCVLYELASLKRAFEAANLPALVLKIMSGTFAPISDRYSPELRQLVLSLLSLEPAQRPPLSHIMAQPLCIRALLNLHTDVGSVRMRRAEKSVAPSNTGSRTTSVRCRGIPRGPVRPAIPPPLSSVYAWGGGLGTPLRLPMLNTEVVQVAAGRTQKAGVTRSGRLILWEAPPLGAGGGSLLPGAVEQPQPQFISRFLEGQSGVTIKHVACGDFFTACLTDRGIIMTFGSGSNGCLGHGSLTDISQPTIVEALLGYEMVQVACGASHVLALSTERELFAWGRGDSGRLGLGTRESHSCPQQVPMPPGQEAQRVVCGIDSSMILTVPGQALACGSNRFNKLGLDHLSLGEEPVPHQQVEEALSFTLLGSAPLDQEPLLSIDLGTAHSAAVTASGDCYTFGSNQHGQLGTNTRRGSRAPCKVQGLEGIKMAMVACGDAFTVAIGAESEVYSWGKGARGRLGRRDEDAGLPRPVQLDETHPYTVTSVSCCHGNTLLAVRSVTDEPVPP

[32] = biological target: ABL1 F317I (Homo sapiens, UniProt P00519, F317I); experiment: SelectScreen kinase profiling, ZLYTE; assay type: biochemical
Chain of ABL1 F317I (P00519 whole entry F317I): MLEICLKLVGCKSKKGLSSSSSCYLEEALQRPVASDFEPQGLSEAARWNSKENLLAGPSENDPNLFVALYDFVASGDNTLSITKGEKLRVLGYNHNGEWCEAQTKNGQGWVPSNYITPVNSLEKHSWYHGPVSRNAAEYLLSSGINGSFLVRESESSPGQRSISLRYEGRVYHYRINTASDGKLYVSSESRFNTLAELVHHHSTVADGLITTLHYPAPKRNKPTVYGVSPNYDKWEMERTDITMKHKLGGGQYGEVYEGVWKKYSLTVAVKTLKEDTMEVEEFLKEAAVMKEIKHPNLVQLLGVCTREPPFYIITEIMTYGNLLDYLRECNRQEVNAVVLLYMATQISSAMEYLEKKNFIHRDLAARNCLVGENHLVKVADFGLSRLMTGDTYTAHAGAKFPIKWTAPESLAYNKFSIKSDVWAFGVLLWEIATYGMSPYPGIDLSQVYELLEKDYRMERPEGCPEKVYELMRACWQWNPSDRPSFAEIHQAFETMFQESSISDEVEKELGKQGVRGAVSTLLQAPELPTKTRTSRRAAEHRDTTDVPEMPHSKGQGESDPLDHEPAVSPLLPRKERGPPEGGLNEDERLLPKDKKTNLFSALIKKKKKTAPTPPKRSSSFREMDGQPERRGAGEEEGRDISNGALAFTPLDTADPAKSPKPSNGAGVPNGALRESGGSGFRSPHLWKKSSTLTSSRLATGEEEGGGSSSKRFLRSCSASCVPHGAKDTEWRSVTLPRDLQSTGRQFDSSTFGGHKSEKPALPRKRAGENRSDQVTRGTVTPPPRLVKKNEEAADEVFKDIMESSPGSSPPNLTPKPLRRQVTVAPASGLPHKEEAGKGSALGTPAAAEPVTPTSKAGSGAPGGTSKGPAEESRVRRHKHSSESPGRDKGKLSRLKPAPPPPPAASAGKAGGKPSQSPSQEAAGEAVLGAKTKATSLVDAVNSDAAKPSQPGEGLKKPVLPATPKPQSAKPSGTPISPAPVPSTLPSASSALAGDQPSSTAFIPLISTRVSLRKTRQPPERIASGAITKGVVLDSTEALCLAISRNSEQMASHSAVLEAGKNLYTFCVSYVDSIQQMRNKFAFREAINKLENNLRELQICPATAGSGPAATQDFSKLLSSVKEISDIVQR

[33] = biological target: CYP2D6 (Homo sapiens, UniProt P10635)
[34] = biological target: AKT3 (PKB gamma) (Homo sapiens, UniProt Q9Y243); experiment: SelectScreen kinase profiling, ZLYTE; assay type: biochemical
[35] = biological target: PRKX (Homo sapiens, UniProt P51817); experiment: SelectScreen kinase profiling, ZLYTE; assay type: biochemical
[36] = biological target: MYLK2 (skMLCK) (Homo sapiens, UniProt Q9H1R3); experiment: SelectScreen kinase profiling, ZLYTE; assay type: biochemical
[37] = biological target: CLK1 (Homo sapiens, UniProt P49759); experiment: SelectScreen kinase profiling, ZLYTE; assay type: biochemical; conditions: CLK1, 10 µM

Q: O=C(c1ccc(/C=C/c2n[nH]c3ccccc23)cc1)N1CCNCC1 [KW-2449] was tested. Which inhibition at 10 µM [1] did it give?
A: 100%

Q: What about the inhibition at 10 µM [2] of the same compound?
A: -40%

Q: And the inhibition at 10 µM [3]?
A: 63%

Q: What about the inhibition at 10 µM [4] of the same compound?
A: 38%

Q: And the inhibition at 10 µM [5]?
A: 42%

Q: What about the inhibition at 10 µM [6] of the same compound?
A: 33%

Q: And the inhibition at 10 µM [7]?
A: 97%

Q: What about the IC50 [8] of the same compound?
A: 249 nM

Q: And the inhibition at 10 µM [9]?
A: 90%

Q: And the inhibition at 10 µM [10]?
A: 99%

Q: And the inhibition at 10 µM [11]?
A: 18%

Q: What about the inhibition at 10 µM [12] of the same compound?
A: 100%

Q: What about the inhibition at 10 µM [13] of the same compound?
A: 59%

Q: And the inhibition at 10 µM [14]?
A: 98%

Q: And the inhibition at 10 µM [15]?
A: 9%

Q: And the inhibition at 10 µM [16]?
A: 77%

Q: What about the inhibition at 10 µM [17] of the same compound?
A: 84%

Q: What about the inhibition at 10 µM [18] of the same compound?
A: 99%

Q: And the inhibition at 10 µM [19]?
A: 102%

Q: What about the inhibition at 10 µM [20] of the same compound?
A: 21%

Q: What about the inhibition at 10 µM [21] of the same compound?
A: 25%

Q: What about the “% Inhibition 1A2 EOMCC” value [22] of the same compound?
A: -3%

Q: What about the inhibition at 10 µM [23] of the same compound?
A: 79%

Q: What about the inhibition at 10 µM [24] of the same compound?
A: 17%

Q: What about the inhibition at 10 µM [25] of the same compound?
A: 99%

Q: What about the inhibition at 10 µM [26] of the same compound?
A: 113%

Q: And the “polyploidy (cell cycle analysis)” value [27]?
A: induction of polyploidy with 2µM KW-2449 in all cell lines except DAOY

Q: What about the inhibition at 10 µM [28] of the same compound?
A: 97%

Q: And the inhibition at 10 µM [29]?
A: 96%

Q: And the inhibition at 10 µM [30]?
A: 96%

Q: And the inhibition at 10 µM [31]?
A: 30%

Q: And the inhibition at 10 µM [32]?
A: 94%

Q: And the IC50 [33]?
A: > 10000 nM

Q: What about the inhibition at 10 µM [34] of the same compound?
A: 11%

Q: What about the inhibition at 10 µM [35] of the same compound?
A: 96%

Q: And the inhibition at 10 µM [36]?
A: 100%

Q: And the inhibition at 10 µM [37]?
A: 99%
